From patent US6992079B2, “Substituted 11-phenyl-dibenzazepine compounds useful for the treatment or prevention of diseases characterized by abnormal cell proliferation” (President Fellows of Harvard College, priority 1997, dated 2006)
Like-named read-outs stand apart in the source and are kept apart here. Blank lines part the entries; values can stand above or below the molecule they belong to.

Experiments:
[1] = test system: HT29; assay: SRB antiproliferative assay; type: cell-based; conditions: Homo sapiens
Excerpt: (§1) The cells were passaged using Trypsin (Gibco).

[2] = test system: A549; assay: SRB antiproliferative assay; type: cell-based; conditions: Homo sapiens
Excerpt: as §1

[3] = test system: MMRU; assay: SRB antiproliferative assay; type: cell-based; conditions: Homo sapiens
Excerpt: as §1

[4] = test system: HEPG2; assay: SRB antiproliferative assay; type: cell-based; conditions: Homo sapiens, HepG2, HEPG2 (Hepatocel), 5% FCS/5 day incubation
Excerpt: as §1

[5] = test system: MCF7; assay: SRB antiproliferative assay; type: cell-based; conditions: Homo sapiens
Excerpt: as §1

[6] = test system: NIH 3T3 mouse fibroblast cells; assay: Mitogenic assay (mitogen-induced cell proliferation); type: cell-based; conditions: NIH3T3, 10 μM compound
[7] = test system: HTB174; assay: SRB antiproliferative assay; type: cell-based; conditions: Homo sapiens, HTB174 (Lung), 5% FCS/5 day incubation
Excerpt: as §1

[8] = test system: HUVEC; assay: SRB antiproliferative assay; type: cell-based; conditions: HUVEC (Normal human), 5% FCS/5 day incubation
Excerpt: as §1

[9] = test system: HCT-15; assay: SRB antiproliferative assay; type: cell-based; conditions: Homo sapiens, HCT-15 (Colon), 5% FCS/5 day incubation
Excerpt: as §1

[10] = test system: GM; assay: SRB antiproliferative assay; type: cell-based; conditions: GM (Normal human), 5% FCS/5 day incubation
Excerpt: as §1

[11] = test system: L929; assay: SRB antiproliferative assay; type: cell-based; conditions: L929 (Normal mouse), 5% FCS/5 day incubation
Excerpt: as §1

[12] = test system: HeLa; assay: SRB antiproliferative assay; type: cell-based; conditions: Homo sapiens, HeLa (Cervical), 5% FCS/5 day incubation
Excerpt: as §1

[13] = test system: CaSki; assay: SRB antiproliferative assay; type: cell-based; conditions: Homo sapiens, Ca-Ski, CaSki (Cervical), 5% FCS/5 day incubation
Excerpt: as §1

[14] = test system: U118MG; assay: SRB antiproliferative assay; type: cell-based; conditions: Homo sapiens, U-118-MG, U118MG (CNS), 5% FCS/5 day incubation
Excerpt: as §1

[15] = test system: SK-MEL-28; assay: SRB antiproliferative assay; type: cell-based; conditions: Homo sapiens, SK-MEL-28 (Melanoma), 5% FCS/5 day incubation
Excerpt: as §1

[16] = test system: ACHN; assay: SRB antiproliferative assay; type: cell-based; conditions: Homo sapiens, ACHN (Renal), 5% FCS/5 day incubation
Excerpt: as §1

[17] = test system: MDA-MB-23; assay: SRB antiproliferative assay; type: cell-based; conditions: Homo sapiens
Excerpt: as §1

[18] = test system: DU-145; assay: SRB antiproliferative assay; type: cell-based; conditions: Homo sapiens, DU-145 (Prostate), 5% FCS/5 day incubation
Excerpt: as §1

[19] = test system: Ca^2+ from intracellular pools / capacitative Ca^2+ influx; assay: Intracellular Ca2+ release and capacitative Ca2+ influx; type: cell-based; conditions: in vitro
[20] = Preliminary toxicology, subcutaneous injection for 14 days; type: in vivo, CD-1 female mice; conditions: mouse, in vivo, sc, 80 mg/kg/day
Experimental: The toxicological effects of CLT, and compounds 28, 30 and 31 were tested in CD-1 female mice. A dose of 80 mg/kg/day was given to each mouse via subcutaneous injection for a period of 14 days. Preliminary toxicological data was determined by measuring body weight, gross pathology of organs blood chemistry and histology. The vehicle used was DMF 12%+2% Tween 20 88%.

[21] = test system: squamous cell carcinoma (KLN-205) cells; assay: Tumor growth in murine squamous cell carcinoma model; type: in vivo, mouse
[22] = test system: human melanoma MM-RU cells; assay: Lung metastases in MM-RU tumor-bearing mice; type: in vivo, nude mice
[23] = target: T1, Gardos channel of erythrocytes (Homo sapiens, UniProt O15554); assay: Gardos channel assay; type: cell-based
T1 construct: endogenous in cells; host or cells: erythrocytes
T1 sequence (O15554 whole entry): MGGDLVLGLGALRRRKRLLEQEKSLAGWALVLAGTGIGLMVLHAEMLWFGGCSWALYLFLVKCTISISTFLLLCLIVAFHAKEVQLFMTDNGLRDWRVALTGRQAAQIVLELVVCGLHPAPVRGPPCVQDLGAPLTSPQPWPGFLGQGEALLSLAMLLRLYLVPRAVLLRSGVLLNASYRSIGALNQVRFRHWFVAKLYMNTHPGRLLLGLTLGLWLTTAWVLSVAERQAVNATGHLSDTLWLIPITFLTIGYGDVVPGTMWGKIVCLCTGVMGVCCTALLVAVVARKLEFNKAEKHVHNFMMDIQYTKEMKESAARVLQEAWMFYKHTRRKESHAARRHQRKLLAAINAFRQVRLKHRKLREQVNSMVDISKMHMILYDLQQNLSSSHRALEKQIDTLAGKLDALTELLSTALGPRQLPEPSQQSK

[24] = HT-29, HT29 (Colon), 5% FCS/5 day incubation
[25] = A549, A549 (Lung), 5% FCS/5 day incubation
[26] = MMRU (Melanoma), 5% FCS/5 day incubation
[27] = MCF7, MCF7 (Breast), 5% FCS/5 day incubation
[28] = MDA-MB-23 (Breast), SRB, 5% FCS/5 day incubation, read-out: IC50
[29] = mouse, in vivo, po, 120 mg/kg/day

IC50 [1, 24]: 2600 nM
IC50 [2, 25]: > 5000 nM
IC50 [4]: 3400 nM
IC50 [5, 27]: 4200 nM
SMILES: O=C(c1ccccc1)N1Cc2ccccc2C(c2ccccc2)c2ccccc21 (stereo not drawn) [Compound 16]
IC50 [3, 26]: 2700 nM
inhibition at 10 µM ([6]; Mus musculus): 99%

SMILES: COc1cccc2c1C(c1ccccc1Cl)c1cc(Cl)ccc1NC2 (stereo not drawn) [Compound 18]
inhibition at 10 µM ([6]; Mus musculus): 99%

IC50 [1, 24]: 4800 nM
IC50 [2, 25]: > 5000 nM
IC50 [4]: 4500 nM
IC50 [5, 27]: 2400 nM
SMILES: O=C(Nc1ccc([N+](=O)[O-])cc1)N1Cc2ccccc2C(c2ccccc2Cl)c2ccccc21 (stereo not drawn) [Compound 35]
IC50 [3, 26]: 3100 nM
IC50 [7]: 4000 nM
inhibition at 10 µM ([6]; Mus musculus): 0%

SMILES: CCOC(=O)C(=O)N1Cc2ccccc2C(c2ccccc2)c2ccccc21 (stereo not drawn) [Compound 10]
inhibition at 10 µM ([6]; Mus musculus): 53%

SMILES: COc1ccc2c(c1)CN(C(=O)c1ccc(Cl)cc1)c1ccc(Cl)cc1C2c1ccccc1Cl (stereo not drawn) [Compound 23]
inhibition at 10 µM ([6]; Mus musculus): 55%

SMILES: COc1cc([C@@H]2c3cc4c(cc3[C@@H](O[C@@H]3O[C@@H]5CO[C@@H](C)O[C@H]5[C@H](O)[C@H]3O)[C@H]3COC(=O)[C@H]23)OCO4)cc(OC)c1O [VP-16, Etoposide, reference compound]
IC50 [8]: < 1250 nM
IC50 [1, 24]: < 1250 nM
IC50 ([1]; HT-29, HT29, 2% FCS/3 days): 20000 nM
IC50 [9]: 1300 nM
IC50 [2, 25]: < 1250 nM
IC50 ([2]; A549, A549, 2% FCS/3 days): 2300 nM
IC50 [10]: 1400 nM
IC50 [11]: < 1250 nM
IC50 [3, 26]: < 1250 nM
IC50 ([3]; MMRU, 2% FCS/3 days): < 2500 nM
IC50 [12]: < 1250 nM
IC50 [4]: < 1250 nM
IC50 [5, 27]: < 1250 nM
IC50 ([5]; MCF7, MCF7, 2% FCS/3 days): < 2500 nM
IC50 [13]: 1800 nM
IC50 [14]: 2200 nM
IC50 [15]: < 1250 nM
IC50 [16]: < 1250 nM
IC50 ([17]; MDA-MB-23): < 1250 nM
IC50 [7]: < 1250 nM
IC50 [18]: < 1250 nM

SMILES: Clc1ccc2c(c1)C(c1ccccc1)c1cc3ccccc3cc1CN2 (stereo not drawn) [Compound 15]
inhibition at 10 µM ([6]; Mus musculus): 40%

SMILES: COc1cccc(C(=O)N2Cc3ccccc3C(c3ccccc3)c3ccccc32)c1 (stereo not drawn) [Compound 17]
inhibition at 10 µM ([6]; Mus musculus): 99%

SMILES: CN1Cc2ccccc2C(c2ccccc2)c2ccccc21 (stereo not drawn) [Compound 2]
inhibition at 10 µM ([6]; Mus musculus): 99%

SMILES: O=C(Nc1ccccc1)N1Cc2ccccc2C(c2ccccc2Cl)c2ccccc21 (stereo not drawn) [Compound 32]
inhibition at 10 µM ([6]; Mus musculus): 99%

SMILES: O=C(O)C(=O)N1Cc2ccccc2C(c2ccccc2)c2ccccc21 (stereo not drawn) [Compound 11]
inhibition at 10 µM ([6]; Mus musculus): 32%

SMILES: CNc1ccc(C(=O)N2Cc3ccccc3C(c3ccccc3Cl)c3ccccc32)cc1 (stereo not drawn) [Compound 33]
IC50 [7]: 1400 nM
inhibition at 10 µM ([6]; Mus musculus): 99%

IC50 ([1]; HT-29, HT29, 2% FCS/3 days): 9700 nM
IC50 ([2]; A549, A549, 2% FCS/3 days): 11400 nM
IC50 ([5]; MCF7, MCF7, 2% FCS/3 days): 1700 nM
SMILES: CN1Cc2ccccc2C(c2ccccc2Cl)c2ccccc21 (stereo not drawn) [Compound 4]
IC50 ([3]; MMRU, 2% FCS/3 days): 4600 nM
inhibition at 10 µM ([6]; Mus musculus): 89%

SMILES: COc1cccc2c1C(c1ccccc1Cl)c1cc(Cl)ccc1N(C(=O)c1ccc(Cl)cc1)C2 (stereo not drawn) [Compound 24]
inhibition at 10 µM ([6]; Mus musculus): 89%

SMILES: O=C(c1ccc2ccccc2c1)N1Cc2ccccc2C(c2ccccc2)c2ccccc21 (stereo not drawn) [Compound 25]
inhibition at 10 µM ([6]; Mus musculus): 75%

SMILES: Cc1ccc(C(=O)N2Cc3ccccc3C(c3ccccc3)c3ccccc32)cc1 (stereo not drawn) [Compound 22]
IC50 [7]: 1400 nM
inhibition at 10 µM ([6]; Mus musculus): 99%

SMILES: COc1ccc(C(=O)N2Cc3ccccc3C(c3ccccc3)c3ccccc32)cc1 (stereo not drawn) [Compound 21]
IC50 [7]: 1900 nM
inhibition at 10 µM ([6]; Mus musculus): 93%

IC50 [4]: 1500 nM
SMILES: Nc1ccc(C(=O)N2Cc3ccccc3C(c3ccccc3Cl)c3ccccc32)cc1 (stereo not drawn) [Compound 34]
IC50 [3, 26]: 1200 nM
IC50 [7]: 900 nM
inhibition at 10 µM ([6]; Mus musculus): 99%

SMILES: COc1ccc2c(c1)CNc1ccc(Cl)cc1C2c1ccccc1Cl (stereo not drawn) [Compound 19]
inhibition at 10 µM ([6]; Mus musculus): 99%

SMILES: c1ccc(CN2Cc3ccccc3C(c3ccccc3)c3ccccc32)cc1 (stereo not drawn) [Compound 5]
inhibition at 10 µM ([6]; Mus musculus): 91%

IC50 [1, 24]: 400 nM
IC50 [2, 25]: 1100 nM
IC50 [12]: 200 nM
IC50 [4]: 400 nM
IC50 [5, 27]: 500 nM
IC50 [17, 28]: > 1000 nM
SMILES: COc1ccc(C(=O)N2Cc3ccccc3C(c3ccccc3Cl)c3ccccc32)cc1 (stereo not drawn) [Compound 27]
IC50 [14]: 400 nM
IC50 [7]: 300 nM
inhibition at 10 µM ([6]; Mus musculus): 99%

melting point: 159 to 161 °C
SMILES: COC(=O)N1Cc2ccccc2C(c2ccccc2Cl)c2ccccc21 (stereo not drawn) [Compound 9, N-methoxycarbonyl-11-(2′-chlorophenyl)-5,6-dihydro-11H-dibenz[b,e]azepine]
inhibition at 10 µM ([6]; Mus musculus): 99%

SMILES: Clc1ccccc1C1c2ccccc2CNc2ccccc21 (stereo not drawn) [Compound 3]
inhibition at 10 µM ([6]; Mus musculus): 99%

melting point: 95 to 99 °C
SMILES: O=C(Oc1ccccc1)N1Cc2ccccc2C(c2ccccc2Cl)c2ccccc21 (stereo not drawn) [Compound 26, N-phenoxycarbonyl-11-(2′-chlorophenyl)-5,6-dihydro-11H-dibenz[b,e]azepine]
inhibition at 10 µM ([6]; Mus musculus): 99%

SMILES: CN1Cc2ccccc2C(c2ccccc2)c2cc(Br)ccc21 (stereo not drawn) [Compound 7]
inhibition at 10 µM ([6]; Mus musculus): 99%

IC50 [1, 24]: 700 nM
IC50 [12]: 600 nM
IC50 [4]: 900 nM
IC50 [17, 28]: > 1000 nM
SMILES: O=C(c1ccc([N+](=O)[O-])cc1)N1Cc2ccccc2C(c2ccccc2)c2ccccc21 (stereo not drawn) [Compound 20]
IC50 [14]: 900 nM
IC50 [7]: 700 nM
inhibition at 10 µM ([6]; Mus musculus): 95%

SMILES: O=C(c1ccc(Cl)cc1)N1Cc2ccccc2C(c2ccccc2)c2ccccc21 (stereo not drawn) [Compound 13]
inhibition at 10 µM ([6]; Mus musculus): 97%

SMILES: Clc1ccccc1C(c1ccccc1)(c1ccccc1)n1ccnc1 [Clotrimazole, reference compound]
Ca^2+ release from intracellular pools [19]: releases Ca^2+ from intracellular pools
capacitative Ca^2+ influx into the cell [19]: inhibits capacitative Ca^2+ influx
inhibition at 10 µM [6]: 93%
overall body weight vs age matched control animals [20]: no significant gains or losses
cyclin D1 and PCNA expression in vivo ([21]; KLN induced tumors): abrogated cyclin D1 and PCNA expression
tumor growth ([21]; KLN-205, subcutaneous injection or oral administration of 80 mg/kg/day for 30 days): significantly inhibited tumor growth
Lung Metastases ([22]; MM-RU tumor-bearing mice, 120 mg/kg/d × 21, p.o.): 64 ± 20
Body Wt. Change [22, 29]: 86%
Liver Wt. [22, 29]: 1.19 ± 0.10 gram

melting point: 155 to 165 °C
SMILES: O=C(Oc1ccccc1)N1Cc2ccccc2C(c2ccccc2)c2ccccc21 (stereo not drawn) [Compound 14, N-phenoxycarbonyl-11-phenyl-5,6-dihydro-11H-dibenz[b,e]azepine]
inhibition at 10 µM ([6]; Mus musculus): 98%

SMILES: COc1ccc2c(c1)CNc1ccccc1C2(c1ccccc1)c1ccc(F)cc1 (stereo not drawn) [Compound 12]
inhibition at 10 µM ([6]; Mus musculus): 13%

SMILES: c1ccc(C2c3ccccc3CNc3ccccc32)cc1 (stereo not drawn) [Compound 1]
inhibition at 10 µM ([6]; Mus musculus): 56%

SMILES: Clc1ccccc1C1c2ccccc2CN(Cc2ccccc2)c2ccccc21 (stereo not drawn) [Compound 8]
inhibition at 10 µM ([6]; Mus musculus): 84%

IC50 ([1]; HT-29, HT29, 5% FCS/2 days): > 10000 nM
IC50 ([2]; A549, A549, 5% FCS/2 days): > 10000 nM
SMILES: COC(=O)N1Cc2ccccc2C(c2ccccc2)c2ccccc21 (stereo not drawn) [Compound 6]
inhibition at 10 µM ([6]; Mus musculus): 87%

IC50 [23]: 414 to 433 nM
SMILES: CN1Cc2ccccc2C(c2ccccc2Cl)c2ccccc21 (stereo not drawn) [Compound 29]
